We go through nine compounds from ChEMBL document CHEMBL5465560, “Selectivity Literature for EUbOPEN Chemogenomic Library” (2024).

Each structure is given as a SMILES string.

The target in assay [1] is Ribosomal protein S6 kinase alpha-6 (Homo sapiens, UniProt Q9UK32). As to the kind of experiment: Selectivity interaction (Upstate Kinase Profiler service (Millipore)) EUB0000056c RPS6KA6. As to conditions: at 1 µM.
The target in assay [2] is Protein kinase C theta type (Homo sapiens, UniProt Q04759). Description: Selectivity interaction (Upstate Kinase Profiler service (Millipore)) EUB0000056c PRKCQ. As to conditions: at 1 µM.
Chain of Protein kinase C theta type (Q04759 whole entry, looked up): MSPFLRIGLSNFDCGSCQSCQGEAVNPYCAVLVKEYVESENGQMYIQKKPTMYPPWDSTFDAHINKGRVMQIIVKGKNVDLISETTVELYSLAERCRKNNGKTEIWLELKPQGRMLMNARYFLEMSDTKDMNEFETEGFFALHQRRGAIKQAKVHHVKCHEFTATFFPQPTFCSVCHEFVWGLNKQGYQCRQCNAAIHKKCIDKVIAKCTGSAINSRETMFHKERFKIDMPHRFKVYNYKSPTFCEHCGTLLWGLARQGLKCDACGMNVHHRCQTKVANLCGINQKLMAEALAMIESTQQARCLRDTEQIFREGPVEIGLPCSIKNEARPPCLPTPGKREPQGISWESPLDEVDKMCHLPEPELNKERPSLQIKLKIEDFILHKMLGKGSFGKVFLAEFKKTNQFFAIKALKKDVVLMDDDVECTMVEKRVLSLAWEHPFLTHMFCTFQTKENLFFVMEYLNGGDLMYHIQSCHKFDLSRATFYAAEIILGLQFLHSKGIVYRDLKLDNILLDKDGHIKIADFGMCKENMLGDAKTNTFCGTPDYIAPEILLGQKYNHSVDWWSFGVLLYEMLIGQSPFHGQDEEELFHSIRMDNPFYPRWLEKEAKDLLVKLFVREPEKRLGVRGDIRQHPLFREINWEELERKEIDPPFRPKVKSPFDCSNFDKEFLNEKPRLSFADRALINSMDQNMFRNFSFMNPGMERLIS
The subject of assay [3] is Fibroblast growth factor receptor 3 (Homo sapiens), P22607 [G697C]. The following applies: at 10 µM.
For assay [4], the target named is T1, Serine/threonine-protein kinase RIO3 (Homo sapiens) (UniProt O14730).
T1 sequence (whole entry): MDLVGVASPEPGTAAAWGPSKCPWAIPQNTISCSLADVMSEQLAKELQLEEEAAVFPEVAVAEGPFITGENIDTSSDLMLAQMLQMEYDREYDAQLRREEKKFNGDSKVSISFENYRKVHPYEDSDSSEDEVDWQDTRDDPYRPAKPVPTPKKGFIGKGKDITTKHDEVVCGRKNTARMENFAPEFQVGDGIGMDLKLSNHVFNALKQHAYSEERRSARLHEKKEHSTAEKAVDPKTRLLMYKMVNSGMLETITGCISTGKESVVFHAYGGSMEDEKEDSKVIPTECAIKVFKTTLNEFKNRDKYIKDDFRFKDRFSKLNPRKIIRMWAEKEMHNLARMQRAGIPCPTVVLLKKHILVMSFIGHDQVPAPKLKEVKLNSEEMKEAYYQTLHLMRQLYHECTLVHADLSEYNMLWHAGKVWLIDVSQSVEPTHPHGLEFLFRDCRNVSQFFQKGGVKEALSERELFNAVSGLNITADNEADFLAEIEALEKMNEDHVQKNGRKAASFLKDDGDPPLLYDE
As to the kind of experiment: Selectivity interaction (Ambit KINOMEscan and KiNATiv profiling in Jurkat cells) EUB0000090b RIOK3. Type of assay: cell-based. The following applies: at 1 µM.

For assay [5], the target named is Cyclin-dependent kinase-like 1 (Homo sapiens) (UniProt Q00532). Description: Selectivity interaction (KinomeScan (DiscoverX)) EUB0000666a CDKL1. The following applies: at 10 µM.
Chain of Cyclin-dependent kinase-like 1 (Homo sapiens) (Q00532 whole entry): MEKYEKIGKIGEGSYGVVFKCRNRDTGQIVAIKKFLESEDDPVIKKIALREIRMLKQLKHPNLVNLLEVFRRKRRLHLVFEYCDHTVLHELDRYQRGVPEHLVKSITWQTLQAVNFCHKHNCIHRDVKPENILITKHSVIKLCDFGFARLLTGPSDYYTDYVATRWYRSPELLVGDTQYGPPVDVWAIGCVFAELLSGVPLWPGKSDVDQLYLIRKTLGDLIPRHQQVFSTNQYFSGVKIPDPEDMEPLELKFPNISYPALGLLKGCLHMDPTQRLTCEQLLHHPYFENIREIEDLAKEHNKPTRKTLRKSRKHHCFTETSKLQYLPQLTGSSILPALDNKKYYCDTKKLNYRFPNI
Assay [6] addresses Rho-associated protein kinase 1 (Homo sapiens) (UniProt Q13464). As to the kind of experiment: Selectivity interaction (KinomeScan (DiscoverX)) EUB0000607a ROCK1. The following applies: at 10 µM.
Assay [7] has as its target Serine/threonine-protein kinase SIK3 (Homo sapiens) (UniProt Q9Y2K2). Description: Selectivity interaction (KinomeScan (DiscoverX)) EUB0000229b SIK3. The following applies: at 10 µM.
Assay [8] has as its target Myosin-IIIa (Homo sapiens) (UniProt Q8NEV4). Description: Selectivity interaction (KinomeScan (DiscoverX)) EUB0000229b MYO3A. The following applies: at 10 µM.
Assay [9] has as its target T2, Mitogen-activated protein kinase 13 (Homo sapiens) (UniProt O15264).
T2 sequence (whole entry): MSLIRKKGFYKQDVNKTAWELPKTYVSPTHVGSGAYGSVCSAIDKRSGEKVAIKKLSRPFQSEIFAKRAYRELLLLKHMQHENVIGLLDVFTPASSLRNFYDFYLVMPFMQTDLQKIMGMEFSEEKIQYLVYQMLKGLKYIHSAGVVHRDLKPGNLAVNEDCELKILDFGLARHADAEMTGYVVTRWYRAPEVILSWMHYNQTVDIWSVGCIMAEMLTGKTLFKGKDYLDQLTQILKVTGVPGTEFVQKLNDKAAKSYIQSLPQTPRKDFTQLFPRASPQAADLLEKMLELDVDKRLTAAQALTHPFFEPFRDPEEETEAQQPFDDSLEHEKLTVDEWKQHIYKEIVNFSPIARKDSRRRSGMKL
As to the kind of experiment: Selectivity interaction (Kinase panel (DSF assay)) EUB0001559a MAPK13. (Differential scanning fluorimetry follows unfolding on heating by fluorescence.)

The target of assay [10] is Interferon-induced, double-stranded RNA-activated protein kinase (Homo sapiens) (UniProt P19525). As to the kind of experiment: Selectivity interaction (ActivX KiNativ screen (ex vivo kinase selectivity in human PBMCs)) EUB0001619a EIF2AK2. Type of assay: cell-based. As to conditions: PBMC, at 1 µM.
Chain of Interferon-induced, double-stranded RNA-activated protein kinase (Homo sapiens) (P19525 whole entry): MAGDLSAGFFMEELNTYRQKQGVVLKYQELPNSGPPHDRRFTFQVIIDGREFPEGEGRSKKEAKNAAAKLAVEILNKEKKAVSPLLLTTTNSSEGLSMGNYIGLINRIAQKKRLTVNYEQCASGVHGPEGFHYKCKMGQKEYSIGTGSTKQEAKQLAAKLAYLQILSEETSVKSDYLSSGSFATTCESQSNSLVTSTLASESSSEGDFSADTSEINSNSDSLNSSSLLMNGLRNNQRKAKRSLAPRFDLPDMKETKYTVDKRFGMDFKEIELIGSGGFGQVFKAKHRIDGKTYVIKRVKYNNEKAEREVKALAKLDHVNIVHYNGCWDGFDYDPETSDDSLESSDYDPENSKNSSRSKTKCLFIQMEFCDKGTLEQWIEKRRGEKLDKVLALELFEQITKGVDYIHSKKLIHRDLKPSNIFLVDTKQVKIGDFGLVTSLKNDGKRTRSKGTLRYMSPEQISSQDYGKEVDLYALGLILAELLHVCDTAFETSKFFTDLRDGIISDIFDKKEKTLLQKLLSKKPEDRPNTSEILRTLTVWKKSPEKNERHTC
The target of assay [11] is T3, Serine/threonine-protein kinase TAO2 (Homo sapiens) (UniProt Q9UL54).
T3 sequence (whole entry): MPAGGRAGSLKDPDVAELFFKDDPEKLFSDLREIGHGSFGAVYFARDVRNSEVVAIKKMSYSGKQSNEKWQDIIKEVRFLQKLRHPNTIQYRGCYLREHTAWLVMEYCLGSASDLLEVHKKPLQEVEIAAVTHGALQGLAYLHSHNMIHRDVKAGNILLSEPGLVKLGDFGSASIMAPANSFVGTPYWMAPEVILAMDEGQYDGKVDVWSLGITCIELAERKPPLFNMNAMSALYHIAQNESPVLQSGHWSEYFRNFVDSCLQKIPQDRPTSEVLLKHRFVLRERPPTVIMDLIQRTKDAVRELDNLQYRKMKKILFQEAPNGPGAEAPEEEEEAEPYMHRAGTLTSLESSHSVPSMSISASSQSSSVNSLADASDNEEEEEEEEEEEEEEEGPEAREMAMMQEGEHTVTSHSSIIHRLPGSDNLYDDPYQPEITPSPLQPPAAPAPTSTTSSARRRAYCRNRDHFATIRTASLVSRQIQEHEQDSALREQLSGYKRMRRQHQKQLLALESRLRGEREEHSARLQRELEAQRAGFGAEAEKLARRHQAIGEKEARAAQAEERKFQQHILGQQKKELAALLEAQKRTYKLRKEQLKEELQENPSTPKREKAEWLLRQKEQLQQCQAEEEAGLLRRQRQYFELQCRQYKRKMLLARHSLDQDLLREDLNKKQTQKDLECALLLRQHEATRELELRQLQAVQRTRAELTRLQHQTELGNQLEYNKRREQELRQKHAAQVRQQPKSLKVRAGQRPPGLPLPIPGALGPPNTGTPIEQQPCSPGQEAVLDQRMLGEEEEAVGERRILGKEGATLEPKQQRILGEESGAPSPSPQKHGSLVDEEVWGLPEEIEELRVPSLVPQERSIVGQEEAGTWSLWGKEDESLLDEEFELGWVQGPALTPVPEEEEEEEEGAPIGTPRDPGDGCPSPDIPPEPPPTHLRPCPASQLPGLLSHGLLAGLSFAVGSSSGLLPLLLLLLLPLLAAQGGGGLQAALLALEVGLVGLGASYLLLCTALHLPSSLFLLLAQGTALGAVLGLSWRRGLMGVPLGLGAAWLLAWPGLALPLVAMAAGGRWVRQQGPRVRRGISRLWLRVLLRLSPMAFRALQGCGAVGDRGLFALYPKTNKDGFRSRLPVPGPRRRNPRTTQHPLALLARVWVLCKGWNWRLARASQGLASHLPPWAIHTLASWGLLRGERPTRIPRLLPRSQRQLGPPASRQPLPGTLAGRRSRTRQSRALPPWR
As to the kind of experiment: Selectivity interaction (KinomeScan (DiscoverX)) EUB0001619a TAOK2. As to conditions: at 1 µM.

In assay [12] the target is Ribosomal protein S6 kinase alpha-3 (Homo sapiens, UniProt P51812). As to the kind of experiment: Selectivity interaction (Kinase panel (KiNativ target engagement assay in Jurkat cells)) EUB0001635a RPS6KA3. Type of assay: cell-based. As to conditions: Selectivity number of off-targets 0.0, Selectivity number of targets 233.0, Source Knowledge https://www.sciencedirect.com/science/article/pii/S2451945619300674?via%3Dihub, at 1 µM.
Chain of Ribosomal protein S6 kinase alpha-3 (P51812 whole entry): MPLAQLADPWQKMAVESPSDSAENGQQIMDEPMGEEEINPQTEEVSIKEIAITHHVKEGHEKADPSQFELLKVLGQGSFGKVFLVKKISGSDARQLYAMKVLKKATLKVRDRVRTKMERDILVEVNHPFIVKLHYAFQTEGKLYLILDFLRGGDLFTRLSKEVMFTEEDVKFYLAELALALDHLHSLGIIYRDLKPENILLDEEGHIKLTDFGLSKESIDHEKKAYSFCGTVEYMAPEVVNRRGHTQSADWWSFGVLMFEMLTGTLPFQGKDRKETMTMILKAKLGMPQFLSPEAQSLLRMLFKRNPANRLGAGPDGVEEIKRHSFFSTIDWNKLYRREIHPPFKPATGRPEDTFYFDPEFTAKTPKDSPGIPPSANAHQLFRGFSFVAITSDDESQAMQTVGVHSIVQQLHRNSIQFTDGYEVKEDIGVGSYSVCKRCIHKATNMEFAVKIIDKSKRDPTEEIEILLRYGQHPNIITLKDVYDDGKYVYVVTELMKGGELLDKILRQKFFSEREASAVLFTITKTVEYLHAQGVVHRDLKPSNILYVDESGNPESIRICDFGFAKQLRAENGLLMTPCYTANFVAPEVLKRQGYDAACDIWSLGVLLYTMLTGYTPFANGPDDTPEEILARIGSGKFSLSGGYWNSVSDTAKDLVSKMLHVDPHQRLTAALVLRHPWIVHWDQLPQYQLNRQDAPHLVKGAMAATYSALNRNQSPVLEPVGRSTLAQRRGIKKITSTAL

Chain of Myosin-IIIa (Homo sapiens) (Q8NEV4 whole entry): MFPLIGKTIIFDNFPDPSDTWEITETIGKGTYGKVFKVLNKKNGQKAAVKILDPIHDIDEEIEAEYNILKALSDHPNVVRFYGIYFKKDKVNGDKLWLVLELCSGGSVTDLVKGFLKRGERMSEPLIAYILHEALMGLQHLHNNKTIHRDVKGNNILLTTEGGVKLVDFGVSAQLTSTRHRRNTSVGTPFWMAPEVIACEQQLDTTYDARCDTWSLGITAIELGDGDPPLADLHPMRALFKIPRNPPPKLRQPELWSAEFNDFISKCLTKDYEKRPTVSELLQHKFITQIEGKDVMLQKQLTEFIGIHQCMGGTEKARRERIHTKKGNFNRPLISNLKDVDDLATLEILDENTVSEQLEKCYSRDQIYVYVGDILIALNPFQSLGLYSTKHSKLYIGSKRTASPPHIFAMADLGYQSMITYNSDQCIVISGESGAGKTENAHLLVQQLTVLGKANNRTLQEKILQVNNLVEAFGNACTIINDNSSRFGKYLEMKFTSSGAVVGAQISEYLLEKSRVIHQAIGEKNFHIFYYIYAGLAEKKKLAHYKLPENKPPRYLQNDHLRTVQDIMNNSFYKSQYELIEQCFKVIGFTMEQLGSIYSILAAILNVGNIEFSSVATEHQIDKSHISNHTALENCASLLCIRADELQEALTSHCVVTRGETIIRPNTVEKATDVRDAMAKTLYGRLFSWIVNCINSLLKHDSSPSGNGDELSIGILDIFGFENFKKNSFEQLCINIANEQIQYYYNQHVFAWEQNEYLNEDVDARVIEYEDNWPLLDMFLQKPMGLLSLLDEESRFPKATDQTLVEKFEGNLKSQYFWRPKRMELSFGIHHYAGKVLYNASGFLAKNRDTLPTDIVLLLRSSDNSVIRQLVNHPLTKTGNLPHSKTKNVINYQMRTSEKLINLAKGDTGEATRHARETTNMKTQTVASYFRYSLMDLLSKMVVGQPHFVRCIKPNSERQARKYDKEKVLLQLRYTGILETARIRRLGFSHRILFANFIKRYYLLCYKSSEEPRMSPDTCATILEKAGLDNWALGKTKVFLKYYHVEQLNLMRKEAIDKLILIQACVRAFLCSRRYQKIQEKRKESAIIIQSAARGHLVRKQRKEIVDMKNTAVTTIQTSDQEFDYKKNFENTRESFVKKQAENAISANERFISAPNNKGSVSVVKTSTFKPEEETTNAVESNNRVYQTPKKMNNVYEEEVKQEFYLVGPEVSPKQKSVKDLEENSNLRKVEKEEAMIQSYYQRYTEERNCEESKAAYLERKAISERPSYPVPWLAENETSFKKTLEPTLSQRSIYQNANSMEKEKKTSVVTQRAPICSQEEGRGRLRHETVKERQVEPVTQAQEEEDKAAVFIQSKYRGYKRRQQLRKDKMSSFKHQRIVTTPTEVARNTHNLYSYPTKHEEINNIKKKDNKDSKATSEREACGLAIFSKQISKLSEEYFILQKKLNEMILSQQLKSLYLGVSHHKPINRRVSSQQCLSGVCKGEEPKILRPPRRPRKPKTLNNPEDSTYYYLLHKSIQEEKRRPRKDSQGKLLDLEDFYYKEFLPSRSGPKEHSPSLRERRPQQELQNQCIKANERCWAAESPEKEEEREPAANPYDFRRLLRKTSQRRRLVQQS
Chain of Ribosomal protein S6 kinase alpha-6 (Q9UK32 whole entry): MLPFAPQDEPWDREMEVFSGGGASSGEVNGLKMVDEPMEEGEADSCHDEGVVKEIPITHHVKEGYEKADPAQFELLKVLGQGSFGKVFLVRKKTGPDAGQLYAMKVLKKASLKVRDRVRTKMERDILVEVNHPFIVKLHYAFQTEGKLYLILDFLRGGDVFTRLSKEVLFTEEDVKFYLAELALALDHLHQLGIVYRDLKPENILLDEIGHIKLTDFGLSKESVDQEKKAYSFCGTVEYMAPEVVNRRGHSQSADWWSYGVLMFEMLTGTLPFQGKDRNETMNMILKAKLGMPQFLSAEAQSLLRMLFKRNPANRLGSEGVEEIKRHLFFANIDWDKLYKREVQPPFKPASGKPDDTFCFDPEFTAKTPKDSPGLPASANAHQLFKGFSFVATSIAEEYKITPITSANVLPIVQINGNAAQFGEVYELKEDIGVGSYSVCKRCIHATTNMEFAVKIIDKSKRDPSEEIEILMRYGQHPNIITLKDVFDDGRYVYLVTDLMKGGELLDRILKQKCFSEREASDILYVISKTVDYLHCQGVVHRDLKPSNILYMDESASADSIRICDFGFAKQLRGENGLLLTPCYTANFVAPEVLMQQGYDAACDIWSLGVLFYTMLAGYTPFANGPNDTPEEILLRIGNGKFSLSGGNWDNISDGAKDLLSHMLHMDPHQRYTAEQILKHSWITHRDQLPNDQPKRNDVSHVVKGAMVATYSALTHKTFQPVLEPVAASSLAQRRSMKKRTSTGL

As to `Cc1ccc(-c2ccc3c(ccc4sc5c(c43)NC[C@@H](C)NC5=O)n2)cn1`, the values for the % of inhibition in assay [1] and in assay [2] were 38% and 27%, respectively.

Take `Cc1cc([C@@H](C)Nc2ccccc2C(=O)O)c2nc(N3CCOCC3)cc(=O)n2c1` [AZD-6482]: the % of control in [3] came to 100%.

In turn, `CN(C)C/C=C/C(=O)Nc1ccc(C(=O)N2CCCC(Nc3ncc(Cl)c(-c4c[nH]c5ccccc45)n3)C2)cc1` (configuration not stated) displayed a % of control in [4] of 69%.

As to `O=C(NOC[C@H](O)CO)c1ccc(F)c(F)c1Nc1ccc(I)cc1F`, in assay [5], the % of control was 78%.

`CNC(=O)Nc1ccc(-c2nc(N3CC4CCC(C3)O4)c3cnn(C4CCC5(CC4)OCCO5)c3n2)cc1` came in with a % of control in assay [6] of 100%.

Consider `COc1cc(N(C)c2ccnc3ccc(C(F)(F)F)cc23)cc(OC)c1OC`, for which the values for the % binding in assay [7] and in assay [8] were 74% and 94%, respectively.

In assay [9], `CN(C(=O)c1cnn2cccnc12)c1cc2c(cc1N1CCOCC1)C(=O)N(C[C@@H](F)C(C)(C)O)C2` came in with a dTM of 1.1 K.

On to `N#Cc1cccc(-c2c[nH]c3ncnc(N4CCOCC4)c23)c1`, for which the % of inhibition in [10] stood at 7%. In assay [11], this compound showed a % of control of 100%.

In assay [12], `C=CC(=O)Nc1ccc(C(=O)Nc2[nH]nc3c2CN(C(=O)N[C@H](CN(C)C)c2ccccc2)C3(C)C)cc1` gave a % of engagement of 13.1%.
